Experimental data published in ChEMBL document CHEMBL5665443, “Enzyme Inhibitor Single Concentration assay results for EUbOPEN Chemogenomics Library” (2024).

Tests used:
Details in all cases: Hit No
[1] = biological target: T1, Single-strand selective monofunctional uracil DNA glycosylase (Homo sapiens) (UniProt Q53HV7);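 further: enzymatic SMUG1 assay coupled with APE1, reading fluorescence at 594 nm released when a quenched double-stranded DNA oligonucleotide substrate is cleaved and separated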
T1 sequence (whole entry): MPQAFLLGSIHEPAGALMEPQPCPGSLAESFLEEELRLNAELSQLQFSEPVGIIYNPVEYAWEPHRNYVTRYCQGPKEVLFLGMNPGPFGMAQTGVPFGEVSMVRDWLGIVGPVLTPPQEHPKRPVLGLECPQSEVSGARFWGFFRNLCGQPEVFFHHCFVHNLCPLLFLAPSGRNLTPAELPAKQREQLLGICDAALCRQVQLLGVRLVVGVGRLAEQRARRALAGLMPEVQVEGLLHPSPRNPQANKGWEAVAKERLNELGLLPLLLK
Description: Inhibition of SMUG1 by quantifying inhibition of SMUG1-mediated cleavage and dissociation of quenched duplex DNA oligonucleotides, measured as fluorescence at 594 nm. To generate a functional strand incision and increase turn-over this assay is coupled to APE1.

[2] = biological target: G/T mismatch-specific thymine DNA glycosylase (Homo sapiens) (UniProt Q13569);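 further: human TDG cleavage of quenched duplex DNA oligonucleotides coupled to APE1, strand release read as fluorescence at 594 nm, inhibition of TDG activity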
G/T mismatch-specific thymine DNA glycosylase (Homo sapiens), sequence (Q13569 whole entry): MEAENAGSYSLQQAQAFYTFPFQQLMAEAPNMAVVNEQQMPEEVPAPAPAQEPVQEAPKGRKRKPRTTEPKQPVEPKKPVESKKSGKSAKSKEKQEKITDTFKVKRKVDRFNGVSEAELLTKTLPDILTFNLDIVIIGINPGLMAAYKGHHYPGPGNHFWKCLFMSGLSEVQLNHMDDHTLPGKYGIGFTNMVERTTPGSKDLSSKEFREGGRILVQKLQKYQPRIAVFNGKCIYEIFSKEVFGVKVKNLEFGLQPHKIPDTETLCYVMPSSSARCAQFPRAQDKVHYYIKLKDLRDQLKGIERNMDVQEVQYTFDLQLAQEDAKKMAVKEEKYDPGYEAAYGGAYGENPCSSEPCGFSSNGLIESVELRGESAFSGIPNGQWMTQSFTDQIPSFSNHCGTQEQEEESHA
Description: Inhibition of TDG by quantifying inhibition of TDG-mediated cleavage and dissociation of quenched duplex DNA oligonucleotides, measured as fluorescence at 594 nm. To generate a functional strand incision and increase turn-over this assay is coupled to APE1.

[3] = biological target: T2, Endonuclease III-like protein 1 (Homo sapiens) (UniProt P78549);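 further: enzyme assay tracking NTHL1 cutting and release of a quenched double-stranded DNA oligo substrate, read as fluorescence at 594 nm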
T2 sequence (whole entry): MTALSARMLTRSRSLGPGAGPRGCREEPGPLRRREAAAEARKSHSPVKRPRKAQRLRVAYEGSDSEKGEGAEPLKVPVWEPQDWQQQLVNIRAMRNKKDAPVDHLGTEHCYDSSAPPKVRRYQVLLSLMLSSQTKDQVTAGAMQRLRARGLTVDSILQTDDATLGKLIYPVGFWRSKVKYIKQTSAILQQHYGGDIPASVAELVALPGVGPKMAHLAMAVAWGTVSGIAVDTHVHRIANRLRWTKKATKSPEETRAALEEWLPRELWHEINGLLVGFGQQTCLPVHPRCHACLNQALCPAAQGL
Description: Inhibition of NTHL1 by quantifying inhibition of NTHL1-mediated cleavage and dissociation of quenched duplex DNA oligonucleotides, measured as fluorescence at 594 nm.

[4] = biological target: N-glycosylase/DNA lyase (Homo sapiens) (UniProt O15527);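 further: OGG1 cleavage of a quenched duplex DNA oligonucleotide, coupled to APE1 for strand incision, read as fluorescence at 594 nm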
N-glycosylase/DNA lyase (Homo sapiens), sequence (O15527 whole entry): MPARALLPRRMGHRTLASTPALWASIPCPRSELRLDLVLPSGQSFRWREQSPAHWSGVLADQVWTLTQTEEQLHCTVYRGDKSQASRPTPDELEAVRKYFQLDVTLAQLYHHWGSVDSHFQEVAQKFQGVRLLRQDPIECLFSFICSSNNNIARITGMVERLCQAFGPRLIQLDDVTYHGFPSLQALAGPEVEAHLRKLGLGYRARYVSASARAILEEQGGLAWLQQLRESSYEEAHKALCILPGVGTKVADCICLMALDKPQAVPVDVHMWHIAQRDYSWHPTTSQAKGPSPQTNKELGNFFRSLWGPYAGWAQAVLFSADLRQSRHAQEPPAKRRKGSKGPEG
Description: Inhibition of OGG1 by quantifying inhibition of OGG1-mediated cleavage and dissociation of quenched duplex DNA oligonucleotides, measured as fluorescence at 594 nm. To generate a functional strand incision and increase turn-over this assay is coupled to APE1.

[5] = biological target: Endonuclease 8-like 1 (Homo sapiens) (UniProt Q96FI4);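 further: fluorescence at 594 nm from quenched duplex DNA oligonucleotides released by NEIL1 cleavage and strand separation, reported as reduction of this enzyme activity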
Endonuclease 8-like 1 (Homo sapiens), sequence (Q96FI4 whole entry): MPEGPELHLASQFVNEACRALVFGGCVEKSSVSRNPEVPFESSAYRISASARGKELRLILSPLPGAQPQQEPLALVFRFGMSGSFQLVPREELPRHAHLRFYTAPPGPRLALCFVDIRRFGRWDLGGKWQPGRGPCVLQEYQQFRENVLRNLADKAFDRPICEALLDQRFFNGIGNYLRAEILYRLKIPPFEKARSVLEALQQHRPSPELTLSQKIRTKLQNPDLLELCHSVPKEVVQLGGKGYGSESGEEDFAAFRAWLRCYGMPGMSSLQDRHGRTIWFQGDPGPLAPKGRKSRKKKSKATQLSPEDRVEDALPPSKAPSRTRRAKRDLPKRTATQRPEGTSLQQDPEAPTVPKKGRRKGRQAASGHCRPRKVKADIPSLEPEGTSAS
Description: Inhibition of NEIL1 by quantifying inhibition of NEIL1-mediated cleavage and dissociation of quenched duplex DNA oligonucleotides, measured as fluorescence at 594 nm.

[6] = biological target: T3, Endonuclease 8-like 2 (Homo sapiens) (UniProt Q969S2);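 further: fluorescence at 594 nm reports NEIL2 cutting and release of a quenched double-stranded DNA oligo substrate, reduced signal read as inhibition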
T3 sequence (whole entry): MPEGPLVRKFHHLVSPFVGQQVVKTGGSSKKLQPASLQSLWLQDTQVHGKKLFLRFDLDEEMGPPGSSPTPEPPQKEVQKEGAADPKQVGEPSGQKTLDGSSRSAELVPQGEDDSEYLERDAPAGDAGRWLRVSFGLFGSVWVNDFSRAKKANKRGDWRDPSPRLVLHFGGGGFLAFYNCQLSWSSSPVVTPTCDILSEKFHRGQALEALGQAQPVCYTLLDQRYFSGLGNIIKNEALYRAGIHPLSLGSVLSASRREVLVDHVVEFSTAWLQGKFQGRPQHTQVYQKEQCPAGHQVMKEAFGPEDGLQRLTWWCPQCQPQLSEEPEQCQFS
Description: Inhibition of NEIL2 by quantifying inhibition of NEIL2-mediated cleavage and dissociation of quenched duplex DNA oligonucleotides, measured as fluorescence at 594 nm.

[7] = biological target: T4, Adenine DNA glycosylase (Homo sapiens) (UniProt Q9UIF7);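 further: human MUTYH activity read as 594 nm fluorescence from cleavage and release of a quenched DNA duplex, coupled with APE1 for strand incision, lower signal meaning inhibition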
T4 sequence (whole entry): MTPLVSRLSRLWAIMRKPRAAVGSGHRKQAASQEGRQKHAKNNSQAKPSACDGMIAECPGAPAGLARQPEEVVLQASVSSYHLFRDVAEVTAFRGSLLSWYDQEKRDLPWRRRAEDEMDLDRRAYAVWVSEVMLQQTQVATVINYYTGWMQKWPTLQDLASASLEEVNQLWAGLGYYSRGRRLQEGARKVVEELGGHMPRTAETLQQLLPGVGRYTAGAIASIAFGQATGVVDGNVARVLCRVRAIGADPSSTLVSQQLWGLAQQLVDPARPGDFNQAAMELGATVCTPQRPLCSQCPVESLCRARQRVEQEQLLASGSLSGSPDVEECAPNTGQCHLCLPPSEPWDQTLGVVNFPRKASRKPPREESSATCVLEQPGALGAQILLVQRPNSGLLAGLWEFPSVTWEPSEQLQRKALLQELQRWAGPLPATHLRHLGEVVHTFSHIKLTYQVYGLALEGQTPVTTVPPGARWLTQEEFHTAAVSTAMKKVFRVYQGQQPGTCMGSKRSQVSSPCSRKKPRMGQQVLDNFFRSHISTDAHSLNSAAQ
Description: Inhibition of MUTYH by quantifying inhibition of MUTYH-mediated cleavage and dissociation of quenched duplex DNA oligonucleotides, measured as fluorescence at 594 nm. To generate a functional strand incision and increase turn-over this assay is coupled to APE1.

[8] = biological target: Uracil-DNA glycosylase (Homo sapiens) (UniProt P13051);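 further: UNG excision on a quenched double-stranded DNA oligo probe, with APE1 added for strand incision and turnover, read as fluorescence at 594 nm as strands separate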
Uracil-DNA glycosylase (Homo sapiens), sequence (P13051 whole entry, the tested form may be a part): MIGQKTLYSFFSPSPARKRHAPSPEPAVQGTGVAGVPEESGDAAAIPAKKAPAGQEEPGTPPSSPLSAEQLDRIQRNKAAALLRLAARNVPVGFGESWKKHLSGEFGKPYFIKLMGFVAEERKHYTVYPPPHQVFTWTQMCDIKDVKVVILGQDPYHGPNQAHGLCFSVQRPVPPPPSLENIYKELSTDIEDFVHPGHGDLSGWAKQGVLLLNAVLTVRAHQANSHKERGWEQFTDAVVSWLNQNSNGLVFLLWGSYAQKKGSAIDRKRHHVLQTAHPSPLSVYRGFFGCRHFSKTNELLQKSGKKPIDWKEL
Description: Inhibition of UNG by quantifying inhibition of UNG-mediated cleavage and dissociation of quenched duplex DNA oligonucleotides, measured as fluorescence at 594 nm. To generate a functional strand incision and increase turn-over this assay is coupled to APE1.

[9] = biological target: Methyl-CpG-binding domain protein 4 (Homo sapiens) (UniProt O95243);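 further: MBD4 activity read as fluorescence at 594 nm from cleavage and release of a quenched duplex DNA oligonucleotide, with APE1 coupled to incise the strand and raise turnover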
Methyl-CpG-binding domain protein 4 (Homo sapiens), sequence (O95243 whole entry, the tested form may be a part): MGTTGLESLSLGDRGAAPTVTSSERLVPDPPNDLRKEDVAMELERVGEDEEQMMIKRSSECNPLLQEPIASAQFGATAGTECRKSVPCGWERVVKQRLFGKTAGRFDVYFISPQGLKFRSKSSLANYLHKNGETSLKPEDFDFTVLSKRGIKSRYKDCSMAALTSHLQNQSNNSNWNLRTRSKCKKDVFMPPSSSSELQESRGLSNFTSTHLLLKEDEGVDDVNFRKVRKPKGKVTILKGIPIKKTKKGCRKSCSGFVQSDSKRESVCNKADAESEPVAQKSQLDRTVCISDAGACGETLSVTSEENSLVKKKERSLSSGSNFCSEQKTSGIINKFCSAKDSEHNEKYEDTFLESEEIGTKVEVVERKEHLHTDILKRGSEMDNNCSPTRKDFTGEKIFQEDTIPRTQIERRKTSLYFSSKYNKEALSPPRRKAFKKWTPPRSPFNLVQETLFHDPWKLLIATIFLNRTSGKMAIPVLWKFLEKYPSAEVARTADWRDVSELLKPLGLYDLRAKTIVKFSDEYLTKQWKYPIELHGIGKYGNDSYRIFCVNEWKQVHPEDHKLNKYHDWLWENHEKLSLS
Description: Inhibition of MBD4 by quantifying inhibition of MBD4-mediated cleavage and dissociation of quenched duplex DNA oligonucleotides, measured as fluorescence at 594 nm. To generate a functional strand incision and increase turn-over this assay is coupled to APE1.

[10] = biological target: DNA-3-methyladenine glycosylase (Homo sapiens) (UniProt P29372);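 further: enzyme assay where MPG cuts a quenched duplex DNA oligonucleotide probe, paired with APE1 for strand incision and turnover, read as fluorescence at 594 nm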
DNA-3-methyladenine glycosylase (Homo sapiens), sequence (P29372 whole entry): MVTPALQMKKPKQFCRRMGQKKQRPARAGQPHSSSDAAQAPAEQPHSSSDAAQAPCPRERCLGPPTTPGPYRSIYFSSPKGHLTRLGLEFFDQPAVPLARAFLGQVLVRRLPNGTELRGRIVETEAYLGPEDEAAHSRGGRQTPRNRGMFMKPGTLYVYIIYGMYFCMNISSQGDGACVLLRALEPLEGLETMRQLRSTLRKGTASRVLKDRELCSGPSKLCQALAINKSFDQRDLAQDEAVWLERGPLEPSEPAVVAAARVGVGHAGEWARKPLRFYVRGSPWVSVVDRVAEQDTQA
Description: Inhibition of MPG by quantifying inhibition of MPG-mediated cleavage and dissociation of quenched duplex DNA oligonucleotides, measured as fluorescence at 594 nm. To generate a functional strand incision and increase turn-over this assay is coupled to APE1.

SMILES: COc1cccc2c1c(NS(=O)(=O)c1ccc(Cl)s1)nn2Cc1cccc(CNC(=O)C(C)(C)O)c1
- inhibition ([1]; Compound Concentration 10.0 uM): -4.59%
- inhibition ([2]; Compound Concentration 10.0 uM): 0.908%
- inhibition ([3]; Compound Concentration 10.0 uM): 8%
- inhibition ([4]; Compound Concentration 10.0 uM): -5.21%
- inhibition ([5]; Compound Concentration 10.0 uM): -1.47%
- inhibition ([6]; Compound Concentration 10.0 uM): 1.18%
- inhibition ([7]; Compound Concentration 10.0 uM): 7.32%
- inhibition ([8]; Compound Concentration 10.0 uM): -8.69%
- inhibition ([9]; Compound Concentration 10.0 uM): 19.3%
- inhibition ([10]; Compound Concentration 10.0 uM): -4.44%

SMILES: COc1cc(NC(=O)c2ccc(-c3ccc(Cl)cc3)o2)cc(OC)c1
- inhibition ([1]; Compound Concentration 10.0 uM): 15.3%
- inhibition ([2]; Compound Concentration 10.0 uM): 9.84%
- inhibition ([3]; Compound Concentration 10.0 uM): 8.82%
- inhibition ([4]; Compound Concentration 10.0 uM): 3.08%
- inhibition ([5]; Compound Concentration 10.0 uM): 6.97%
- inhibition ([6]; Compound Concentration 10.0 uM): -9.78%
- inhibition ([7]; Compound Concentration 10.0 uM): -0.703%
- inhibition ([8]; Compound Concentration 10.0 uM): 3.14%
- inhibition ([9]; Compound Concentration 10.0 uM): 21.1%
- inhibition ([10]; Compound Concentration 10.0 uM): 18%

SMILES: O=c1cccc2n1C[C@@H]1CNC[C@H]2C1
- inhibition ([1]; Compound Concentration 10.0 uM): -3.8%
- inhibition ([2]; Compound Concentration 10.0 uM): -5.51%
- inhibition ([3]; Compound Concentration 10.0 uM): -4.39%
- inhibition ([4]; Compound Concentration 10.0 uM): -5.41%
- inhibition ([5]; Compound Concentration 10.0 uM): -1.18%
- inhibition ([6]; Compound Concentration 10.0 uM): -3.15%
- inhibition ([7]; Compound Concentration 10.0 uM): 43.9%
- inhibition ([8]; Compound Concentration 10.0 uM): -3.14%
- inhibition ([9]; Compound Concentration 10.0 uM): 10.5%
- inhibition ([10]; Compound Concentration 10.0 uM): -3.1%

SMILES: COc1ccccc1N1CCN(C[C@@H](C(=O)NC(C)(C)C)c2ccccc2)CC1
- inhibition ([1]; Compound Concentration 10.0 uM): 7.78%
- inhibition ([2]; Compound Concentration 10.0 uM): 24.3%
- inhibition ([3]; Compound Concentration 10.0 uM): 17.1%
- inhibition ([4]; Compound Concentration 10.0 uM): -6.28%
- inhibition ([5]; Compound Concentration 10.0 uM): 15.4%
- inhibition ([6]; Compound Concentration 10.0 uM): -2.13%
- inhibition ([7]; Compound Concentration 10.0 uM): -2.23%
- inhibition ([8]; Compound Concentration 10.0 uM): -2.81%
- inhibition ([9]; Compound Concentration 10.0 uM): 17.7%
- inhibition ([10]; Compound Concentration 10.0 uM): 15.3%

SMILES: CC(C)c1cc(Br)c(NC(=O)Nc2cccnc2)c(Br)c1
- inhibition ([1]; Compound Concentration 10.0 uM): -3.86%
- inhibition ([2]; Compound Concentration 10.0 uM): 19.7%
- inhibition ([3]; Compound Concentration 10.0 uM): -2.73%
- inhibition ([4]; Compound Concentration 10.0 uM): -2.73%
- inhibition ([5]; Compound Concentration 10.0 uM): 3.27%
- inhibition ([6]; Compound Concentration 10.0 uM): 7.55%
- inhibition ([7]; Compound Concentration 10.0 uM): 0.0238%
- inhibition ([8]; Compound Concentration 10.0 uM): -2.82%
- inhibition ([9]; Compound Concentration 10.0 uM): 12.5%
- inhibition ([10]; Compound Concentration 10.0 uM): 14.7%

SMILES: CC(=O)Nc1cccc(-n2c(=O)n(C3CC3)c(=O)c3c(Nc4ccc(I)cc4F)n(C)c(=O)c(C)c32)c1
- inhibition ([1]; Compound Concentration 1.0 uM): 18.1%
- inhibition ([2]; Compound Concentration 1.0 uM): 45.9%
- inhibition ([3]; Compound Concentration 1.0 uM): -1.31%
- inhibition ([4]; Compound Concentration 1.0 uM): 8.25%
- inhibition ([5]; Compound Concentration 1.0 uM): 2.25%
- inhibition ([6]; Compound Concentration 1.0 uM): 1.85%
- inhibition ([7]; Compound Concentration 1.0 uM): 15.8%
- inhibition ([8]; Compound Concentration 1.0 uM): 7.39%
- inhibition ([9]; Compound Concentration 1.0 uM): 22.2%
- inhibition ([10]; Compound Concentration 1.0 uM): 11.7%

SMILES: CCOC(=O)N1CCC(c2cc(O)n3nc(C)c(-c4ccc(F)cc4)c3n2)CC1
- inhibition ([1]; Compound Concentration 10.0 uM): 6.03%
- inhibition ([2]; Compound Concentration 10.0 uM): 48.9%
- inhibition ([3]; Compound Concentration 10.0 uM): 11.3%
- inhibition ([4]; Compound Concentration 10.0 uM): -3.67%
- inhibition ([5]; Compound Concentration 10.0 uM): 5.34%
- inhibition ([6]; Compound Concentration 10.0 uM): 2.71%
- inhibition ([7]; Compound Concentration 10.0 uM): 75.7%
- inhibition ([8]; Compound Concentration 10.0 uM): -0.428%
- inhibition ([9]; Compound Concentration 10.0 uM): 40.6%
- inhibition ([10]; Compound Concentration 10.0 uM): 38.1%

SMILES: Cn1nc(C(=O)NCc2ccc(C(=O)O)cc2)cc1-c1ccc2[nH]ccc2c1
- inhibition ([1]; Compound Concentration 10.0 uM): 8.36%
- inhibition ([2]; Compound Concentration 10.0 uM): 56.9%
- inhibition ([3]; Compound Concentration 10.0 uM): -3.92%
- inhibition ([4]; Compound Concentration 10.0 uM): 0.23%
- inhibition ([5]; Compound Concentration 10.0 uM): 1.38%
- inhibition ([6]; Compound Concentration 10.0 uM): -4.83%
- inhibition ([7]; Compound Concentration 10.0 uM): -5.73%
- inhibition ([8]; Compound Concentration 10.0 uM): 0.276%
- inhibition ([9]; Compound Concentration 10.0 uM): 70.9%
- inhibition ([10]; Compound Concentration 10.0 uM): 115%

SMILES: CC(C)(C)C1CCc2c(sc(NC(=O)c3ccco3)c2C(=O)O)C1 (stereo not given)
- inhibition ([1]; Compound Concentration 10.0 uM): -0.636%
- inhibition ([2]; Compound Concentration 10.0 uM): 25.9%
- inhibition ([3]; Compound Concentration 10.0 uM): 33.6%
- inhibition ([4]; Compound Concentration 10.0 uM): 36.3%
- inhibition ([5]; Compound Concentration 10.0 uM): 4.9%
- inhibition ([6]; Compound Concentration 10.0 uM): 17.7%
- inhibition ([7]; Compound Concentration 10.0 uM): 30.5%
- inhibition ([8]; Compound Concentration 10.0 uM): -0.0242%
- inhibition ([9]; Compound Concentration 10.0 uM): 32.2%
- inhibition ([10]; Compound Concentration 10.0 uM): -0.565%

SMILES: CCCCC[C@H](O)/C=C/[C@H]1CCC(=O)[C@@H]1CCCCCCC(=O)O
- inhibition ([1]; Compound Concentration 10.0 uM): -3.08%
- inhibition ([2]; Compound Concentration 10.0 uM): 11.4%
- inhibition ([3]; Compound Concentration 10.0 uM): 1.19%
- inhibition ([4]; Compound Concentration 10.0 uM): 3.78%
- inhibition ([5]; Compound Concentration 10.0 uM): 1.28%
- inhibition ([6]; Compound Concentration 10.0 uM): 4.01%
- inhibition ([7]; Compound Concentration 10.0 uM): 15.9%
- inhibition ([8]; Compound Concentration 10.0 uM): -4.12%
- inhibition ([9]; Compound Concentration 10.0 uM): 17.3%
- inhibition ([10]; Compound Concentration 10.0 uM): 6.97%
